Results: ChEMBL document CHEMBL1154134, “Scalarane sesterterpenes from the sponge Smenospongia sp” (J Nat Prod, 2008)
In brackets after ≈: the same amount, converted by molar mass.

Assays:
[1] = system: Staphylococcus aureus; assay: Antibacterial activity against Staphylococcus aureus ATCC 65389 after 24 hrs by twofold dilution method; format: functional; details: ATCC 65389, 24 h
[2] = system: Bacillus subtilis; assay: Antibacterial activity against Bacillus subtilis ATCC 6633 after 24 hrs by twofold dilution method; format: functional; details: ATCC 6633, 24 h
[3] = system: Micrococcus luteus; assay: Antibacterial activity against Micrococcus luteus IFC 12708 after 24 hrs by twofold dilution method; format: functional; details: IFC 12708, 24 h
[4] = system: Proteus vulgaris; assay: Antibacterial activity against Proteus vulgaris ATCC 3851 after 24 hrs by twofold dilution method; format: functional; details: ATCC 3851, 24 h
[5] = system: Salmonella typhimurium; assay: Antibacterial activity against Salmonella Typhimurium ATCC 14028 after 24 hrs by two-fold dilution method; format: functional, Salmonella enterica subsp. enterica serovar Typhimurium; details: Salmonella enterica, ATCC 14028, 24 h
[6] = system: Escherichia coli; assay: Antibacterial activity against Escherichia coli ATCC 25922 after 24 hrs by twofold dilution method; format: functional; details: ATCC 25922, 24 h
[7] = system: K562; assay: Cytotoxicity against human K562 cells after 48 hrs by SRB assay; format: functional; details: K562, 48 h, read-out: LC50 (the source's name)
[8] = target: Isocitrate lyase (Magnaporthe oryzae (strain 70-15 / FGSC 8958) (Rice blast fungus)(Pyricularia oryzae), UniProt P0CT06); assay: Inhibition of Magnaporthe grisea isocitrate lyase; parameters: species or system Pyricularia grisea
Chain of Isocitrate lyase (P0CT06 whole entry): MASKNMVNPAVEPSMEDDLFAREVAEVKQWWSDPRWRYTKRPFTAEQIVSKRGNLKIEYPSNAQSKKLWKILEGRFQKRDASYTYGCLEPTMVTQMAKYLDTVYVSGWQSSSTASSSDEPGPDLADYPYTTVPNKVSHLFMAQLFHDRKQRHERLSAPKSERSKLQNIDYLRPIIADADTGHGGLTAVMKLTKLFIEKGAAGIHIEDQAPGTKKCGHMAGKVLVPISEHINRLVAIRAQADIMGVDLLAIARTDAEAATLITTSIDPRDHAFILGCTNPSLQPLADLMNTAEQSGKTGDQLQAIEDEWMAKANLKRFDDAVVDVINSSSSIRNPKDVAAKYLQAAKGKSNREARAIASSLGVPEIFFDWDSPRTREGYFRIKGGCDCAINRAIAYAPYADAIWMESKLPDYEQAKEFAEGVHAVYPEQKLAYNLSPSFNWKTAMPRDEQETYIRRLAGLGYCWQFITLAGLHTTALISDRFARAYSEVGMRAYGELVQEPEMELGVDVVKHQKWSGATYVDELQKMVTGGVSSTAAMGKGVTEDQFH

Structure (SMILES)	MIC [1] [µg/mL]	MIC [2] [µg/mL]	MIC [3] [µg/mL]	MIC [4] [µg/mL]	MIC [5] [µg/mL]	MIC [6] [µg/mL]	CC50 [7] [µg/mL]	IC50 [8] [µM]
CC(=O)O[C@@H]1OC(=O)C2=CC[C@@H]3[C@](C)(CC[C@H]4[C@@]3(C)CC[C@H]3C(C)(C)CCC[C@@]34CO)[C@H]21	> 100	1.56 (≈ 3.51 µM)	3.12 (≈ 7.02 µM)	> 100	6.25 (≈ 14.1 µM)	> 100	22.5 (≈ 50.6 µM)	> 225
COC(=O)C1=CC[C@@H]2[C@](C)(CC[C@H]3[C@@]2(C)CC[C@H]2C(C)(C)CCC[C@@]23COC(C)=O)[C@H]1C=O	25 (≈ 54.5 µM)	0.78 (≈ 1.7 µM)	12.5 (≈ 27.3 µM)	6.25 (≈ 13.6 µM)	12.5 (≈ 27.3 µM)	> 100	8.6 (≈ 18.8 µM)	120
CC(=O)O[C@@H]1OC=C2[C@@H](OC(C)=O)C[C@@H]3[C@](C)(CC[C@H]4[C@@]3(C)CC[C@H]3C(C)(C)CCC[C@@]34CO)[C@H]21	> 100	0.78 (≈ 1.6 µM)	100 (≈ 205 µM)	> 100	6.25 (≈ 12.8 µM)	> 100	0.13 (≈ 0.266 µM)	> 205
CC(=O)OC[C@]12CCCC(C)(C)[C@@H]1CC[C@@]1(C)[C@@H]3CC=C(C(=O)O)[C@@H](C=O)[C@@]3(C)CC[C@@H]12	> 100	> 100	> 100	100 (≈ 225 µM)	> 100	> 100	4.2 (≈ 9.45 µM)	> 225
CC(=O)OC[C@]12CCCC(C)(C)[C@@H]1CC[C@]1(C)[C@@H]2CC[C@]2(C)c3cocc3CC[C@@H]12	> 100	3.12 (≈ 7.56 µM)	25 (≈ 60.6 µM)	> 100	> 100	> 100	2.3 (≈ 5.57 µM)	> 242
CC1=C(O)/C(=C/[C@H](C)CCC/C(C)=C/CC/C(C)=C/CCc2ccoc2)OC1=O	12.5 (≈ 31.4 µM)	6.25 (≈ 15.7 µM)	6.25 (≈ 15.7 µM)	6.25 (≈ 15.7 µM)	6.25 (≈ 15.7 µM)	> 100	43.7 (≈ 110 µM)	67.7
CC(=O)OC[C@]12CCCC(C)(C)[C@@H]1CC[C@@]1(C)[C@@H]3C[C@H](OC(C)=O)C4=CO[C@@H](OC(C)=O)[C@@H]4[C@@]3(C)CC[C@@H]12	> 100	> 100	> 100	> 100	> 100	> 100	6.8 (≈ 12.8 µM)	> 188
CC1(C)CCC[C@@]2(CO)[C@H]1CC[C@]1(C)[C@@H]2CC[C@]2(C)c3cocc3CC[C@@H]12	> 100	1.56 (≈ 4.21 µM)	6.25 (≈ 16.9 µM)	> 100	12.5 (≈ 33.7 µM)	> 100	0.97 (≈ 2.62 µM)	123
CO[C@@H]1OCC2=CC[C@@H]3[C@](C)(CC[C@H]4[C@@]3(C)CC[C@H]3C(C)(C)CCC[C@@]34CO)[C@H]21	> 100	50 (≈ 124 µM)	> 100	> 100	6.25 (≈ 15.5 µM)	> 100	0.11 (≈ 0.273 µM)	104
COC(=O)C1=CC[C@@H]2[C@](C)(CC[C@H]3[C@@]2(C)CC[C@H]2C(C)(C)CCC[C@@]23COC(C)=O)[C@@H]1C=O	> 100	> 100	> 100	> 100	> 100	> 100	3.7 (≈ 8.07 µM)	> 218
CC(=O)O[C@@H]1OC=C2[C@H]1[C@@]1(C)CC[C@H]3[C@@](C)(CC[C@H]4C(C)(C)CCC[C@]34C)[C@@H]1C[C@@H]2O	> 100	3.12 (≈ 7.25 µM)	> 100	> 100	12.5 (≈ 29 µM)	> 100	5.8 (≈ 13.5 µM)	> 232
O=C(O)CC[N+](=O)[O-]	–	–	–	–	–	–	–	50.8
C/C(=C\CC/C(C)=C/C[C@H](O)c1ccoc1)CC/C=C(\C)CC(=O)CC(C)C	> 100	6.25 (≈ 16.2 µM)	> 100	> 100	> 100	> 100	5.7 (≈ 14.7 µM)	> 259
CC1=C(O)/C(=C/[C@H](C)CC/C=C(/C)CCC/C=C(/C)CCc2ccoc2)OC1=O	6.25 (≈ 15.7 µM)	6.25 (≈ 15.7 µM)	3.12 (≈ 7.83 µM)	6.25 (≈ 15.7 µM)	12.5 (≈ 31.4 µM)	> 100	7.3 (≈ 18.3 µM)	78.3
CC(=O)O[C@@H]1OC=C2[C@@H](OC(C)=O)C[C@@H]3[C@](C)(CC[C@H]4[C@@]3(C)CC[C@H]3C(C)(C)CCC[C@@]34C=O)[C@H]21	> 100	> 100	> 100	> 100	> 100	> 100	17.5 (≈ 36 µM)	> 205
CC1(C)S[C@@H]2[C@H](NC(=O)[C@H](N)c3ccccc3)C(=O)N2[C@H]1C(=O)O [AMPICILLIN]	1.56 (≈ 4.46 µM)	1.56 (≈ 4.46 µM)	1.56 (≈ 4.46 µM)	3.12 (≈ 8.93 µM)	3.12 (≈ 8.93 µM)	12.5 (≈ 35.8 µM)	–	–
COc1cccc2c1C(=O)c1c(O)c3c(c(O)c1C2=O)C[C@@](O)(C(=O)CO)C[C@@H]3O[C@H]1C[C@H](N)[C@H](O)[C@H](C)O1 [DOXORUBICIN]	–	–	–	–	–	–	4.9 (≈ 9.02 µM)	–
